In patent US10189854B2, “Substituted pyrimidine compounds” (Grünenthal GmbH, priority 2014, dated 2019):

Biological target: human PDE4B1 (Homo sapiens (Human), UniProt Q07343)
Experiment: cAMP HTRF assay to determine the activity of hPDE4B1
Format: biochemical
Settings: IC50 inhibition of PDE4B; human recombinant PDE4B1, cAMP HTRF assay
Protocol: Biological Testing cAMP HTRF® Assay to Determine the Activity of hPDE4B1
The inhibiting effect of the compounds on the enzyme activity of human PDE4B1 was measured by the quantification of 5′-adenosine monophosphate (5′-AMP), which is formed from 3′,5′-cyclic adenosine monophosphate (cAMP). Human recombinant enzyme, expressed in Sf9 cells, and the HTRF (homogeneous time-resolved fluorescence) detection method were used in the assay.
The test compound or water (control) was mixed with the human recombinant PDE4B1 enzyme (4.8 U) in a buffer consisting of 44.4 mM tris-HCl, 5.28 mM MgCl2, 2.64 mM DTT and 0.044% Tween 20 (pH 7.8). After adding the cAMP enzyme substrate (final concentration 40 nM), the mixture was incubated for 30 minutes at room temperature. Then a fluorescence acceptor (Dye2 marked with cAMP), a fluorescence donor (anti-cAMP antibody marked with a europium cryptate) and the non-specific phosphodiesterase inhibitor IBMX (3-isobutyl-1-methylxanthine; final concentration 1 mM) were added. After 60 min the fluorescence transfer, which correlates with the amount of remaining cAMP, was measured with a microplate reader (Rubystar, BMG) at λex=337 nm, λem=620 nm and λem=665 nm. The enzyme activity was calculated from the quotient formed from the measured signal at 665 nm and that at 620 nm. The result was expressed as the percentage inhibition of enzyme activity of the control (without PDE4 inhibitor). The enzyme was omitted for measurement of the basal control.
[N. Saldou et al., Comparison of recombinant human PDE4 isoforms: interaction with substrate and inhibitors, Cell. Signal. Vol. 10, No. 6, 427-440, 1998]. Several compounds according to the invention are tested in the above-described assay.

Sequence of human PDE4B1 (Q07343 whole entry): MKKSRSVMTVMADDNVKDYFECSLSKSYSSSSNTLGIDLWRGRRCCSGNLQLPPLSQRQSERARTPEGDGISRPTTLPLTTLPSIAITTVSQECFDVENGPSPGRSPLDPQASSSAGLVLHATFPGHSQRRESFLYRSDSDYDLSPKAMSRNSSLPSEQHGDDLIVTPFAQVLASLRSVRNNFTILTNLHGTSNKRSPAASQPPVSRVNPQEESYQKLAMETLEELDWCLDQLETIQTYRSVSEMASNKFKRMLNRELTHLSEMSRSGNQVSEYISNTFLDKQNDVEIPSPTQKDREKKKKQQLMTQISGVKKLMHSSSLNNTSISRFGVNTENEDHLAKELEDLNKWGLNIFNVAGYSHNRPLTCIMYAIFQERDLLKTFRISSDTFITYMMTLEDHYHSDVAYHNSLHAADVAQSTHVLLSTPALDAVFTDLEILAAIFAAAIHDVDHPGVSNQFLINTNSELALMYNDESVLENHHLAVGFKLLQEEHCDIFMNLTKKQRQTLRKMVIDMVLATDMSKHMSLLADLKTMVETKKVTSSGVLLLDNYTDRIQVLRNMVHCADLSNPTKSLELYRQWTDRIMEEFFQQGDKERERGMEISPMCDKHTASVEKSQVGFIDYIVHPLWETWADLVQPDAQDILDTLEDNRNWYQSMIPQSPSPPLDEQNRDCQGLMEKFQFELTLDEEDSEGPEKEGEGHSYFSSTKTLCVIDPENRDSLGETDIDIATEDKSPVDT

`O=C(c1ccc2c(c1)N(c1ncc(-c3ccccc3F)cn1)CC21CC1)N1CC(O)C1` [Compound 36, [1-[5-(2-Fluorophenyl)-pyrimidin-2-yl]-spiro[1,2-dihydro-indole-3,1′-cyclopropane]-6-yl]-(3-hydroxy-azetidin-1-yl)-methanone] was tested, and the IC50 was 0.1 to 1 µM.
Compound `O=C(c1ccc2c(c1)N(c1ncc(-c3ccccc3)cn1)CC21CC1)N1CCNCC1` [Compound 49, [1-(5-Phenyl-pyrimidin-2-yl)-spiro[1,2-dihydro-indole-3,1′-cyclopropane]-6-yl]-piperazin-1-yl-methanone] has an IC50 of under 0.1 µM.
Work on `CC1COCC(C)N1C(=O)c1ccc2c(c1)N(c1ncc(-c3ccccc3F)cn1)CC21CC1` (stereo not drawn) [Compound 101, (3,5-Dimethyl-morpholin-4-yl)-[1-[5-(2-fluorophenyl)-pyrimidin-2-yl]-spiro[1,2-dihydro-indole-3,1′-cyclopropane]-6-yl]-methanone] yielded an IC50 of 0.1 to 1 µM.
For `O=C(c1ccc2c(c1)N(c1ncc(Cc3ccccc3F)cn1)CC21CC1)N1CCOCC1` [Compound 178, [1-[5-[(2-Fluorophenyl)-methyl]-pyrimidin-2-yl]-spiro[1,2-dihydro-indole-3,1′-cyclopropane]-6-yl]-morpholin-4-yl-methanone], the IC50 was 0.1 to 1 µM.
For `CNC(=O)c1ccc2c(c1)N(c1ncc(-c3ccccc3F)cn1)CC21CC1` [Compound 61, 1-[5-(2-Fluorophenyl)-pyrimidin-2-yl]-N-methyl-spiro[1,2-dihydro-indole-3,1′-cyclopropane]-6-carboxylic acid amide], the IC50 was 0.1 to 1 µM.
“Morpholin-4-yl-[1-(5-pyridazin-3-yl-pyrimidin-2-yl)-spiro[1,2-di-hydro-indole-3,1′-cyclopropane]-6-yl]-methanone [Compound 191]” showed an IC50 of under 0.1 µM.
`NC(=O)c1ccc(-c2cnc(N3CC4(CC4)c4ccc(C(=O)N5CCOCC5)cc43)nc2)c(F)c1` [Compound 26, 3-Fluoro-4-[2-[6-(morpholine-4-carbonyl]-spiro[1,2-dihydro-indole-3,1′-cyclopropane]-1-yl]-pyrimidin-5-yl]-benzamide] showed an IC50 of under 0.1 µM.
In the case of `O=C(c1ccc2c(c1)N(c1ncc(-c3ccccc3F)cn1)CC21CC1)N1CCC(CO)CC1` [Compound 98, [1-[5-(2-Fluorophenyl)-pyrimidin-2-yl]-spiro[1,2-dihydro-indole-3,1′-cyclopropane]-6-yl]-[4-(hydroxymethyl)-piperidin-1-yl]-methanone], the IC50 is reported as 0.1 to 1 µM.
For `Cc1cccc(F)c1-c1cnc(N2CC3(CC3)c3ccc(C(=O)N4CCOCC4)cc32)nc1` [Compound 69, [1-[5-(2-Fluoro-6-methyl-phenyl)-pyrimidin-2-yl]-spiro[1,2-dihydro-indole-3,1′-cyclopropane]-6-yl]-morpholin-4-yl-methanone], the IC50 was 0.1 to 1 µM.
`COc1ccsc1-c1cnc(N2CC3(CC3)c3ccc(C(=O)N4CCOCC4)cc32)nc1` [Compound 139, [1-[5-(3-Methoxy-thiophen-2-yl)-pyrimidin-2-yl]-spiro[1,2-dihydro-indole-3,1′-cyclopropane]-6-yl]-morpholin-4-yl-methanone] showed an IC50 of under 0.1 µM.
Compound “[1-[5-(6-Methoxy-pyridazin-3-yl)-pyrimidin-2-yl]-spiro[1,2-dihydro-indole-3,1′-cyclopropane]-6-yl]-morpholin-4-yl-methanone [Compound 201]” has an IC50 of under 0.1 µM.
With `CCN(CC)C(=O)c1ccc2c(c1)N(c1ncc(-c3ccccc3F)cn1)CC21CC1` [Compound 47, N,N-Diethyl-1-[5-(2-fluorophenyl)-pyrimidin-2-yl]-spiro[1,2-dihydro-indole-3,1′-cyclopropane]-6-carboxylic acid amide] the IC50 was 0.1 to 1 µM.
“4-[1-[5-(3-Methoxyphenyl)-pyrimidin-2-yl]-spiro[1,2-dihydro-indole-3,1′-cyclopropane]-6-carbonyl]-piperazin-2-one [Compound 189]” showed an IC50 of under 0.1 µM.
`Cn1cccc1-c1cnc(N2CC3(CC3)c3ccc(C(=O)N4CCOCC4)cc32)nc1` [Compound 141, [1-[5-(1-Methyl-1H-pyrrol-2-yl)-pyrimidin-2-yl]-spiro[1,2-dihydro-indole-3,1′-cyclopropane]-6-yl]-morpholin-4-yl-methaone] showed an IC50 of under 0.1 µM.
Work on `O=C(c1ccc2c(c1)N(c1ncc(-c3c(F)cccc3C(F)(F)F)cn1)CC21CC1)N1CCOCC1` [Compound 24, [1-[5-[2-Fluoro-6-(trifluoromethyl)-phenyl]-pyrimidin-2-yl]-spiro[1,2-dihydro-indole-3,1′-cyclopropane]-6-yl]-morpholin-4-yl-methanone] yielded an IC50 of 1 to 10 µM.
With `CCN(C)C(=O)c1ccc2c(c1)N(c1ncc(-c3ccccc3F)cn1)CC21CC1` [Compound 90, N-Ethyl-1-[5-(2-fluorophenyl)-pyrimidin-2-yl]-N-methyl-spiro[1,2-dihydro-indole-3,1′-cyclopropane]-6-carboxylic acid amide] the IC50 was 0.1 to 1 µM.
With `Cn1ccc(-c2cnc(N3CC4(CC4)c4ccc(C(=O)N5CCOCC5)cc43)nc2)n1` [Compound 137, [1-[5-(1-Methyl-1H-pyrazol-3-yl)-pyrimidin-2-yl]-spiro[1,2-dihydro-indole-3,1′-cyclopropane]-6-yl]-morpholin-4-yl-methanone] the IC50 was under 0.1 µM.
In the case of `COc1ccc(F)c(-c2cnc(N3CC4(CC4)c4ccc(C(=O)N5CCOCC5)cc43)nc2)c1` [Compound 16, [1-[5-(2-Fluoro-5-methoxy-phenyl)-pyrimidin-2-yl]-spiro[1,2-dihydro-indole-3,1′-cyclopropane]-6-yl]-morpholin-4-yl-methanone], the IC50 is reported as under 0.1 µM.
With `CN(C)[C@@H]1CCN(C(=O)c2ccc3c(c2)N(c2ncc(-c4ccccc4F)cn2)CC32CC2)C1` [Compound 110, [(3R)-3-Dimethylamino-pyrrolidin-1-yl]-[1-[5-(2-fluorophenyl)-pyrimidin-2-yl]-spiro[1,2-dihydro-indole-3,1′-cyclopropane]-6-yl]-methanone] the IC50 was 0.1 to 1 µM.
In the case of `O=C(c1ccc2c(c1)N(c1ncc(-c3cc(F)cc(F)c3)cn1)CC21CC1)N1CCOCC1` [Compound 50, [1-[5-(3,5-Difluoro-phenyl)-pyrimidin-2-yl]-spiro[1,2-dihydro-indole-3,1′-cyclopropane]-6-yl]-morpholin-4-ylmethanone], the IC50 is reported as under 0.1 µM.
`CCN1CCN(C(=O)c2ccc3c(c2)N(c2ncc(-c4ccccc4F)cn2)CC32CC2)CC1` [Compound 86, (4-Ethyl-piperazin-1-yl)-[1-[5-(2-fluorophenyl)-pyrimidin-2-yl]-spiro[1,2-dihydro-indole-3,1′-cyclopropane]-6-yl]methanone] showed an IC50 of 0.1 to 1 µM.
With `NC(=O)c1ccc2c(c1)N(c1ncc(-c3ccccc3F)cn1)CC21CC1` [Compound 127, 1-[5-(2-Fluorophenyl)-pyrimidin-2-yl]-spiro[1,2-dihydro-indole-3,1′-cyclopropane]-6-carboxylic acid amide] the IC50 was 0.1 to 1 µM.
`NC(=O)c1ccc(F)c(-c2cnc(N3CC4(CC4)c4ccc(C(=O)N5CCOCC5)cc43)nc2)c1` [Compound 35, 4-Fluoro-3-[2-[6-(morpholine-4-carbonyl)-spiro[1,2-dihydro-indole-3,1′-cyclopropane]-1-yl]-pyrimidni-5-yl]-benzamide] showed an IC50 of under 0.1 µM.
With `CC(=O)N1CCNC(C(=O)c2ccc3c(c2)N(c2ncc(-c4ccccc4F)cn2)CC32CC2)C1` (stereo not drawn) [Compound 85, 1-[5-[1-[5-(2-Fluorophenyl)-pyrimidin-2-yl]-spiro[1,2-dihydro-indole-3,1′-cyclopropane]-6-carbonyl]-piperazin-1-yl]-ethanone] the IC50 was under 0.1 µM.
Compound `COc1cccc(-c2cnc(N3CC4(CC4)c4ccc(C(=O)N5CCOCC5)cc43)nc2)c1` [Compound 48, [1-[5-(3-Methoxyphenyl)-pyrimidin-2-yl]-spiro[1,2-dihydro-indole-3,1′-cyclopropane]-6-yl]-morpholin-4-yl-methanone] has an IC50 of under 0.1 µM.
In the case of “[1-[5-(6-Methyl-pyridazin-3-yl)-pyrimidin-2-yl]-spiro[1,2-dihydro-indole-3,1′-cyclopropane]-6-yl]-morpholin-4-yl-methanone [Compound 196]”, the IC50 is reported as under 0.1 µM.
For `CN(CCO)C(=O)c1ccc2c(c1)N(c1ncc(-c3ccccc3F)cn1)CC21CC1` [Compound 95, 1-[5-(2-Fluorophenyl)-pyrimidin-2-yl]-N-(2-hydroxy-ethyl)-N-methyl-spiro[1,2-dihydro-indole-3,1′-cyclopropane]-6-carboxylic acid amide], the IC50 was under 0.1 µM.
With “Morpholin-4-yl-[1-(5-pyrimidin-4-yl-pyrimidin-2-yl)-spiro[1,2-di-hydro-indole-3,1′-cyclopropane]-6-yl]-methanone [Compound 190]” the IC50 was under 0.1 µM.
For `N[C@@H]1CCN(C(=O)c2ccc3c(c2)N(c2ncc(-c4cccc(F)c4F)cn2)CC32CC2)C1` [Compound 114, [(3R)-3-Amino-pyrrolidin-1-yl]-[1-[5-(2,3-difluoro-phenyl)-pyrimidin-2-yl]-spiro[1,2-dihydro-indole-3,1′-cyclopropane]-6-yl]-methanone], the IC50 was under 0.1 µM.
With `Cc1ccccc1-c1cnc(N2CC3(CC3)c3ccc(C(=O)N4CCOCC4)cc32)nc1` [Compound 12, Morpholin-4-yl-[1-(5-o-tolyl-pyrimidin-2-yl)-spiro[1,2-dihydro-indole-3,1′-cyclopropane]-6-yl]-methanone] the IC50 was under 0.1 µM.
